Tested on: B16–F10 cells
Assay: RNaseq gene expression profiling
Assay type: cell-based, mouse
Conditions: RNAseq
Experimental: AC-340 superinduced CYP24A1 expression in all cell lines tested, and ZG-126 appeared to be a hyperagonist in SK-MEL-28 cells. […] AC-340 treatment produced 3 times more differentially expressed genes (DEGs) than AM-193, with ZG-126 producing an intermediate number (Figure A). […] The varying effects of each treatment on the numbers of regulated genes and the fold changes observed are reflected in plots of log-fold changes and volcano plots (Figure S3B).
A quality control was performed before sequencing in paired-end at 50 M reads by Illumina NovaSeq 6000 S4 PE100. After sequencing, the FASTQ files were sent to us and all downstream analysis were performed on Galaxy (Galaxy (usegalaxy.org)). First, trimmomatic tool was used to remove the adapters from the reads. Then, using the alignment tool, HISAT2, the reads were mapped to the mouse genome. In the next step, the counted reads were annotated and finally the list of differentially expressed genes (DEGs) for each treatment was obtained using the preinstalled R package called Limma.

## CCC(CC)(c1ccc(OCCCCCC(=O)NO)cc1)c1ccc(OCC(O)C(C)(C)C)c(C)n1 (stereo not shown) [AM-193]
Gene Acat2, AM193-significant genes
  logFC Acat2: -0.7924
Gene Agt, AM193-significant genes
  logFC Agt: -0.9491
Gene Aimp2, AM193-significant genes
  logFC Aimp2: -0.7904
Gene Alyref, AM193-significant genes
  logFC Alyref: -0.7893
Gene Anln, AM193-significant genes
  logFC Anln: -0.751
Gene Aurkb, AM193-significant genes
  logFC Aurkb: -0.7442
Gene B3galt5, AM193-significant genes
  logFC B3galt5: -0.7772
Gene Bhlhe40, AM193-significant genes
  logFC Bhlhe40: -0.9608
Gene Birc5, AM193-significant genes
  logFC Birc5: -0.9013
Gene Bnip1, AM193-significant genes
  logFC Bnip1: -0.7195
Gene Bora, AM193-significant genes
  logFC Bora: -0.8854
Gene Brca1, AM193-significant genes
  logFC Brca1: -0.7501
Gene Bsn, AM193-significant genes
  logFC Bsn: -0.8525
Gene Cad, AM193-significant genes
  logFC Cad: -1.103
Gene Calr, AM193-significant genes
  logFC Calr: -0.7283
Gene Ccl5, AM193-significant genes
  logFC Ccl5: -0.8403
Gene Ccna2, AM193-significant genes
  logFC Ccna2: -0.7214
Gene Ccnb1, AM193-significant genes
  logFC Ccnb1: -0.7431
Gene Ccnf, AM193-significant genes
  logFC Ccnf: -0.8441
Gene Cd3eap, AM193-significant genes
  logFC Cd3eap: -0.7422
Gene Cdc6, AM193-significant genes
  logFC Cdc6: -0.8307
Gene Cdc20, AM193-significant genes
  logFC Cdc20: -0.7899
Gene Cdc25c, AM193-significant genes
  logFC Cdc25c: -0.8576
Gene Cdk1, AM193-significant genes
  logFC Cdk1: -0.7282
Gene Cdk2, AM193-significant genes
  logFC Cdk2: -0.7948
Gene Cenpa, AM193-significant genes
  logFC Cenpa: -0.7639
Gene Cenpn, AM193-significant genes
  logFC Cenpn: -0.717
Gene Cep152, AM193-significant genes
  logFC Cep152: -0.7072
Gene Cse1l, AM193-significant genes
  logFC Cse1l: -0.7192
Gene Dctd, AM193-significant genes
  logFC Dctd: -1.041
Gene Ddah1, AM193-significant genes
  logFC Ddah1: -1.0571
Gene Dhcr24, AM193-significant genes
  logFC Dhcr24: -1.0227
Gene Dis3, AM193-significant genes
  logFC Dis3: -0.7516
Gene Dkc1, AM193-significant genes
  logFC Dkc1: -0.7246
Gene Dnph1, AM193-significant genes
  logFC Dnph1: -0.7927
Gene E2f8, AM193-significant genes
  logFC E2f8: -0.7725
Gene Egln1, AM193-significant genes
  logFC Egln1: -1.099
Gene Elovl6, AM193-significant genes
  logFC Elovl6: -0.8086
Gene Eme1, AM193-significant genes
  logFC Eme1: -0.7703
Gene Eps8, AM193-significant genes
  logFC Eps8: -0.9363
Gene Espl1, AM193-significant genes
  logFC Espl1: -0.8155
Gene Exosc6, AM193-significant genes
  logFC Exosc6: -0.7177
Gene Exosc8, AM193-significant genes
  logFC Exosc8: -0.7524
Gene Fam162a, AM193-significant genes
  logFC Fam162a: -1.049
Gene Fam83d, AM193-significant genes
  logFC Fam83d: -0.8732
Gene Fasn, AM193-significant genes
  logFC Fasn: -0.7289
Gene Fdps, AM193-significant genes
  logFC Fdps: -0.7443
Gene Fkbp11, AM193-significant genes
  logFC Fkbp11: -1.012
Gene Foxm1, AM193-significant genes
  logFC Foxm1: -0.7084
Gene Fubp1, AM193-significant genes
  logFC Fubp1: -0.7875
Gene Fut11, AM193-significant genes
  logFC Fut11: -0.7657
Gene Gamt, AM193-significant genes
  logFC Gamt: -0.9245
Gene Gar1, AM193-significant genes
  logFC Gar1: -0.799
Gene Gcat, AM193-significant genes
  logFC Gcat: -1.125
Gene Gemin4, AM193-significant genes
  logFC Gemin4: -0.7731
Gene Gins1, AM193-significant genes
  logFC Gins1: -0.7214
Gene Gjb2, AM193-significant genes
  logFC Gjb2: -0.8099
Gene Gm973, AM193-significant genes
  logFC Gm973: -0.7844
Gene Grhpr, AM193-significant genes
  logFC Grhpr: -0.8764
Gene Grwd1, AM193-significant genes
  logFC Grwd1: -0.9726
Gene Gys1, AM193-significant genes
  logFC Gys1: -0.7213
Gene H1f3, AM193-significant genes
  logFC H1f3: -0.9967
Gene H1f6, AM193-significant genes
  logFC H1f6: -1.042
Gene H2ac6, AM193-significant genes
  logFC H2ac6: -0.96
Gene H2ac8, AM193-significant genes
  logFC H2ac8: -0.9016
Gene H2ac11, AM193-significant genes
  logFC H2ac11: -0.8838
Gene H2ac25, AM193-significant genes
  logFC H2ac25: -0.7891
Gene H2ax, AM193-significant genes
  logFC H2ax: -0.7149
Gene H2bc6, AM193-significant genes
  logFC H2bc6: -0.7735
Gene H2bc8, AM193-significant genes
  logFC H2bc8: -0.9803
Gene H2bc9, AM193-significant genes
  logFC H2bc9: -1.042
Gene H2bc11, AM193-significant genes
  logFC H2bc11: -0.7444
Gene H2bc18, AM193-significant genes
  logFC H2bc18: -0.8059
Gene H2bu1-ps, AM193-significant genes
  logFC H2bu1-ps: -0.9542
Gene H3c1, AM193-significant genes
  logFC H3c1: -0.892
Gene H3c6, AM193-significant genes
  logFC H3c6: -0.7599
Gene H3c7, AM193-significant genes
  logFC H3c7: -0.9595
Gene H4c1, AM193-significant genes
  logFC H4c1: -0.7797
Gene H4c2, AM193-significant genes
  logFC H4c2: -0.7954
Gene Higd1a, AM193-significant genes
  logFC Higd1a: -0.903
Gene Hirip3, AM193-significant genes
  logFC Hirip3: -0.7302
Gene Hmga1, AM193-significant genes
  logFC Hmga1: -1.033
Gene Hmga1b, AM193-significant genes
  logFC Hmga1b: -1.051
Gene Hmgb2, AM193-significant genes
  logFC Hmgb2: -0.8226
Gene Hmgcs1, AM193-significant genes
  logFC Hmgcs1: -0.7755
Gene Hmgn2, AM193-significant genes
  logFC Hmgn2: -0.7752
Gene Hpse, AM193-significant genes
  logFC Hpse: -0.8433
Gene Hrob, AM193-significant genes
  logFC Hrob: -0.8536
Gene Hspa5, AM193-significant genes
  logFC Hspa5: -0.7657
Gene Idi1, AM193-significant genes
  logFC Idi1: -1.099
Gene Ier3, AM193-significant genes
  logFC Ier3: -0.7432
Gene Impa2, AM193-significant genes
  logFC Impa2: -0.8388
Gene Impdh2-ps, AM193-significant genes
  logFC Impdh2-ps: -0.7159
Gene Incenp, AM193-significant genes
  logFC Incenp: -0.7108
Gene Ip6k3, AM193-significant genes
  logFC Ip6k3: -0.7379
Gene Irgm1, AM193-significant genes
  logFC Irgm1: -0.7387
Gene Jmjd6, AM193-significant genes
  logFC Jmjd6: -0.8319
Gene Jpt2, AM193-significant genes
  logFC Jpt2: -0.8326
Gene Kif2c, AM193-significant genes
  logFC Kif2c: -0.7884
Gene Kif14, AM193-significant genes
  logFC Kif14: -0.8043
Gene Kif20b, AM193-significant genes
  logFC Kif20b: -0.7216
Gene Kif22, AM193-significant genes
  logFC Kif22: -0.8428
Gene Kif23, AM193-significant genes
  logFC Kif23: -0.7776
Gene Ldha, AM193-significant genes
  logFC Ldha: -0.9079
Gene Ldlr, AM193-significant genes
  logFC Ldlr: -0.7666
Gene Lig1, AM193-significant genes
  logFC Lig1: -0.7368
Gene Lmnb1, AM193-significant genes
  logFC Lmnb1: -0.9349
Gene Loxl2, AM193-significant genes
  logFC Loxl2: -1.106
Gene Lpcat1, AM193-significant genes
  logFC Lpcat1: -1.098
Gene Lpgat1, AM193-significant genes
  logFC Lpgat1: -0.8431
Gene Lrp8, AM193-significant genes
  logFC Lrp8: -0.9511
Gene Lyar, AM193-significant genes
  logFC Lyar: -0.724
Gene Man2a1, AM193-significant genes
  logFC Man2a1: -0.7409
Gene Mcm10, AM193-significant genes
  logFC Mcm10: -0.7922
Gene Mest, AM193-significant genes
  logFC Mest: -1.125
Gene Met, AM193-significant genes
  logFC Met: -1.057
Gene Mitf, AM193-significant genes
  logFC Mitf: -0.8034
Gene Mki67, AM193-significant genes
  logFC Mki67: -0.7294
Gene Mxd3, AM193-significant genes
  logFC Mxd3: -0.9949
Gene Mybl2, AM193-significant genes
  logFC Mybl2: -1.058
Gene Naa10, AM193-significant genes
  logFC Naa10: -0.8589
Gene Nampt, AM193-significant genes
  logFC Nampt: -0.7338
Gene Nasp, AM193-significant genes
  logFC Nasp: -0.9086
Gene Nbn, AM193-significant genes
  logFC Nbn: -0.7109
Gene Ndc80, AM193-significant genes
  logFC Ndc80: -0.7825
Gene Net1, AM193-significant genes
  logFC Net1: -0.7159
Gene Nhp2, AM193-significant genes
  logFC Nhp2: -0.7487
Gene Nhsl1, AM193-significant genes
  logFC Nhsl1: -0.7298
Gene Nmi, AM193-significant genes
  logFC Nmi: -0.8028
Gene Noc2l, AM193-significant genes
  logFC Noc2l: -0.884
Gene Nr4a1, AM193-significant genes
  logFC Nr4a1: -0.9791
Gene Nsun2, AM193-significant genes
  logFC Nsun2: -0.766
Gene P4ha2, AM193-significant genes
  logFC P4ha2: -0.8086
Gene Pbk, AM193-significant genes
  logFC Pbk: -0.8895
Gene Pclaf, AM193-significant genes
  logFC Pclaf: -0.7086
Gene Pfkl, AM193-significant genes
  logFC Pfkl: -1.068
Gene Pfkp, AM193-significant genes
  logFC Pfkp: -0.83
Gene Pgf, AM193-significant genes
  logFC Pgf: -1.056
Gene Pgm1, AM193-significant genes
  logFC Pgm1: -0.9062
Gene Pgp, AM193-significant genes
  logFC Pgp: -0.8532
Gene Pif1, AM193-significant genes
  logFC Pif1: -0.8212
Gene Pimreg, AM193-significant genes
  logFC Pimreg: -0.8591
Gene Plekha2, AM193-significant genes
  logFC Plekha2: -0.8787
Gene Plk1, AM193-significant genes
  logFC Plk1: -0.7788
Gene Plpp5, AM193-significant genes
  logFC Plpp5: -0.8001
Gene Pmf1, AM193-significant genes
  logFC Pmf1: -0.796
Gene Pnn, AM193-significant genes
  logFC Pnn: -0.8904
Gene Pold1, AM193-significant genes
  logFC Pold1: -0.8466
Gene Pold2, AM193-significant genes
  logFC Pold2: -0.855
Gene Prkcz, AM193-significant genes
  logFC Prkcz: -1.145
Gene Psmb10, AM193-significant genes
  logFC Psmb10: -0.8103
Gene Ptpn6, AM193-significant genes
  logFC Ptpn6: -0.8579
Gene Rcc1, AM193-significant genes
  logFC Rcc1: -0.8765
Gene Rcc1l, AM193-significant genes
  logFC Rcc1l: -0.7067

Source: PMC12517324, “Hyperagonism of a Vitamin D Receptor Agonist/Histone Deacetylase Inhibitor Hybrid Molecule” (Journal of Medicinal Chemistry, 2025)
